# According to paper PMC8205030, “Methoxy and bromo scans on N-(5-methoxyphenyl) methoxybenzenesulphonamides reveal potent cytotoxic compounds, especially against the human breast adenocarcinoma MCF7 cell line” (Journal of Enzyme Inhibition and Medicinal Chemistry, 2021):
# Assays:
# Format in all cases: cell-based, human
# p-62 in HT-29 cells = assay: Western blot of autophagosome marker p-62, HT-29; details: HT-29, 175 nM, 24 h
# Experimental: MCF7, HeLa and HT-29 cells in an exponential growth phase at 2 × 10^4 cells/mL were seeded in Petri dishes (20 × 100 mm) (10 ml/dish). After 24 h incubation, cells were treated with compound 25 at 175 nM, and the levels of p-62 in treated and untreated cells were measured at 24 h post-treatment. The culture medium was removed, cells were washed with PBS and resuspended in 1 ml lysis buffer (50 mM Tris, 130 mM NaCl, 1 mM EDTA, 1% Triton X-100) containing protease inhibitors (Complete, Roche Applied Science, Indianapolis). Cells were harvested and incubated with lysis buffer for 30 min at 4 °C in constant agitation. Cell extracts were centrifuged at 12,000 rpm for 15 min at 4 °C and the supernatants were stored at −80 °C. Protein concentrations were determined using Bradford (BioRad, Hercules, CA) method taking BSA (Bovine Serum Albumin) as standard. Protein extracts were used for electrophoresis mixing with loading buffer (4% SDS, 0.05% bromophenol blue, 20% glycerine, 2% β-mercaptoethanol, and Tris 100 mM at pH 6.8). Proteins were then denatured at 95 °C for 7 min. Protein samples (50 μg/lane) were subjected to electrophoresis on 8% acrylamide gel and SDS-PAGE running buffer at constant voltage (140 V). Then, acrylamide gels were transferred to a PVDF membrane (Merck Millipore, Burlington, Massachusetts, USA) using a semi-dry transfer system for 30 min at constant voltage (15 V). […]
# [1] = system: microtubule network of HeLa cells; assay: Immunofluorescence of microtubule network, HeLa; details: 175 nM, 72 h, confocal microscopy
# Experimental: MCF7, HeLa, and HT-29 cells were grown on round glass coverslips coated with poly-L-lysine (12 mm diameter). To reach appropriate cell confluence, coverslips were manipulated in 6-well plates (3 coverslips/well) seeding 3 ml/well of cells in the exponential growth phase at 2 × 10^4 cells/mL. After 24 h incubation, cells were treated with compound 25 at 175 nM and incubated for 72 h. Cells were washed with PBS, fixed with 4% formaldehyde in PBS for 10 min, permeabilized with 0.5% Triton X-100 (Boehringer Mannheim, Ingelheimam Rhein, Germany) in PBS for 10 min, and blocked with 10% BSA in PBS for 30 min. Then, coverslips were incubated with anti-α-tubulin mouse monoclonal antibody (diluted 1:200 in 3% BSA/PBS) (Sigma-Aldrich Co.) and anti-SQSTM1/p62 rabbit monoclonal antibody (diluted 1:100 in 3% BSA/PBS) (Abcam) for 1 h 30 min. After PBS washing, coverslips were incubated with fluorescent secondary antibodies Alexa Fluor 488 goat anti-mouse IgG and Alexa Fluor 594 anti-rabbit (both diluted 1:400 in 1% BSA/PBS) (Molecular Probes, Invitrogen, Thermo Fischer Scientific) for 1 h in darkness. […] Cells were analysed by confocal microscopy using a LEICA SP5 microscope DMI-6000V model coupled to a LEICA LAS AF software computer.
# HT-29 cells = assay: Apoptotic cell death quantification (Annexin V-FITC/PI), HT-29; details: for Early apoptosis / Late apoptosis / Live (AnV–/PI–) / Necrosis: 72 h; for Apoptotic response: HT-29, 72 h
# Experimental: MCF7, HeLa, and HT-29 apoptotic cells were quantified using an Annexin V-FITC/PI apoptosis detection kit (Immunostep, Salamanca, Spain) according to the manufacturer’s guidelines. 1.5 ml/well of cells in the exponential growth phase at 2 × 10^4 cells/mL were seeded onto 12-well plates and left to attach overnight. After 24 h incubation, cells were treated with compound 25 at 87.5 or 175 nM. 72 h post-treatment, attached and floating cells of treated and untreated wells were collected, centrifuged, resuspended in the Annexin V binding buffer, and stained with Annexin V-FITC/PI. Cells were then incubated in darkness at room temperature for 15 min and a total of 30,000 cells were acquired and analysed using the BD Accuri™ C6 Plus Flow Cytometer and Software (version 1.0.264.21, BD Biosciences, San José, CA, USA), respectively. Compounds were dissolved in DMSO and the final solvent concentrations never exceeded 0.5% (v/v). Control wells included cells with 0.5% (v/v) DMSO.
compound,measurement,setting,value
"COc1ccc(S(=O)(=O)N(CC#N)c2cc(OC)c(Br)cc2OC)cc1 [Compound 25, N-(4-bromo-2,5-dimethoxyphenyl)-N-(cyanomethyl)-4-methoxybenzenesulphonamide]",p-62 levels,p-62 in HT-29 cells,almost complete reduction in the expression of p-62
same,Effect on microtubule network,[1],disrupted the microtubule network
same,Early apoptosis,"HT-29 cells; HT-29, 87.5 nM",16.4%
same,Late apoptosis,"HT-29 cells; HT-29, 87.5 nM",6.8%
same,Live (AnV–/PI–),"HT-29 cells; HT-29, 87.5 nM",76.2%
same,Necrosis,"HT-29 cells; HT-29, 87.5 nM",0.7%
same,Early apoptosis,"HT-29 cells; HT-29, 175 nM",20.4%
same,Late apoptosis,"HT-29 cells; HT-29, 175 nM",15.3%
same,Live (AnV–/PI–),"HT-29 cells; HT-29, 175 nM",61.7%
same,Necrosis,"HT-29 cells; HT-29, 175 nM",2.5%
same,Apoptotic response,HT-29 cells; lower end of printed span (87.5 nM),23%
same,Apoptotic response,HT-29 cells; upper end of printed span (175 nM),36%
